Assays:
Format in all cases: biochemical
GFAT-beta [1] = target: T1, GFAT-beta (Homo sapiens, UniProt O94808); assay: Substrate Km determination, Lineweaver-Burk plot (GFAT-beta); details: extracts from transfected SF9 insect cells, other substrate at saturating levels
T1 construct: made in house; host or cells: SF9 insect cells (sonicated, centrifuged cell extract)
Procedure: FIG. 3 illustrates the effect of varying concentrations of the substrates glutamine and fructose 6-phosphate on the enzyme activity of GFAT-alpha and GFAT-beta. FIG. 3A is a graph illustrating incubation with 10 μl glutamine 200 mM+10 μl fructose 6-phosphate 3.125, 6.25, 12.5, 25, 50, 100, and 200 mM. FIG. 3B is a graph illustrating incubation with 10 μl fructose 6-phosphate 200 mM+10 μl glutamine 3.125, 6.25, 12.5, 25, 50, 100, and 200 mM. 10 μl of GFAT-alpha and 5 μl of GFAT-beta extracts from transfected SF9 insect cells are incubated with 1) 10 μl glutamine 200 mM+10 μl fructose 6-phosphate 3.125, 6.25, 12.5, 25, 50, 100, and 200 mM, and 2) 10 μl fructose 6-phosphate 200 mM+10 μl glutamine 3.125, 6.25, 12.5, 25, 50, 100, and 200 mM in an incubation media containing 10 μl PBS 10×, 10 μl EDTA 50 mM, 10 μl, DTT 10 mM and water to 100 μl. The plate is sealed with a Costar plate sealer and incubated for 60 minutes at 37° C. by floating on a water bath. Additional incubation mixture is kept on ice to add to standard and control samples. […] After a 20-minute incubation at 37° C., the OD is determined for each well at 585 nm. […]
FIG. 3C is a table illustrating the Km values of the substrates for the GFAT-alpha and GFAT-beta enzymes calculated from the data generated in FIGS. 3A and 3B. […]

GFAT-alpha = target: T2, GFAT-alpha (Homo sapiens, UniProt Q06210); assay: GFAT inhibition, microtiter plate glucosamine 6-phosphate assay (GFAT-alpha); details: enzyme expressed in SF9 insect cells; 60 minutes at 37° C.; OD 585 nm; read-out: IC50 (concentration inhibiting 50% of maximum stimulation), GFAT-alpha
T2 construct: made in house; host or cells: SF9 insect cells (sonicated, centrifuged cell extract)
Procedure: (§1) For measurement of […], the GFAT enzyme reaction and analysis of the product are preferably carried out directly in a microtiter plate. The preferred reaction volume of 100 μl consists of the substrates glutamine (10 mM) and fructose 6-phosphate (10 mM), phosphate buffered saline (PBS) pH 7.4, ethylenediaminetetraacetic acid (EDTA) (5 mM), dithiothreitol (DTT) (1 mM), and the GFAT enzyme preparation or tissue extract (0.25-50 μl). The incubation mixture is added to the plate, the plate sealed, and placed floating on a 37° C. water bath for 1 hour. Additional incubation mixture is kept on ice to add to standard and control samples. After incubation, non-incubated control and glucosamine 6-phosphate standards of 2.5 to 30 nmoles along with the cold incubator mixture are added to the appropriate wells in the plate. The glucosamine 6-phosphate produced in the incubation mixtures is acetylated by first adding acetic anhydride 1.5% in acetone (10 μl), followed by potassium tetraborate 200 mM (50 μl). The plate is sealed, shaken for 2 minutes on a microshaker, and placed on an 80° C. water bath for 25 minutes. The plate is cooled by placing it on ice for 5 minutes and then Ehrlich's reagent is added (130 μl) (2 g Ehrlich's reagent+0.3 ml water+2.2 ml concentrated hydrochloric acid+17.4 ml acetic acid which is diluted 1:2 in acetic acid before use). The plate is then placed on a 37° C. water bath for 20 minutes and the OD determined at 500-610 nm, preferably 585 nm.
The reaction mixture is made including enough for standard curve samples and kept on ice. The reaction is started by adding the incubation reagents to the microtiter plate, sealing the plate, and placing the plate in a water bath at 37° C. for 1 hr. Standard curve samples are added to the plate, 2.5 to 30 nmoles/well/10 μl, and the cold mix added to control and standard curve samples. Glucosamine 6-phosphate is acetylated with acetic anhydride 1.5%/acetone 10 μl+potassium tetraborate 200 mM 50 μl, by sealing the plate, shaking for 2 minutes and placing on an 80° C. water bath for 25 minutes, then cooling on ice for 5 minutes. Diluted Ehrlich's reagent 130 μl is added and the plate placed on a 37° C. water bath for 20 minutes. The OD is determined at 585 nm.
Stimulation of GFAT activity. […] For most testing, a 60-minute incubation at 37° C. is carried out in 96 well microtiter plates. To give the best heat transfer the plates are sealed with a Costar plate sealer and floated on a 37° C. water bath. Air bubbles are removed from the bottom of the plate to ensure proper heat transfer to all wells. The 100 μl reaction volume consists of glutamine 10 mM, fructose 6-phosphate 10 mM, PBS 1×, EDTA 5 mM DTT 1 mM, and the enzyme preparation. […]

GFAT-beta [2] = target: T1, GFAT-beta; assay: GFAT inhibition, microtiter plate glucosamine 6-phosphate assay (GFAT-beta)
Procedure: as §1, with “The plate is cooled by placing it on ice for 5 minutes and then Ehrlich's reagent is added (130 μl) (2 g Ehrlich's reagent+0.3 ml water+2.2 ml concentrated hydrochloric acid+17.4 ml acetic acid which is diluted 1:2 in acetic acid before use).” left out
The reaction mixture is made including enough for standard curve samples and kept on ice. […] The OD is determined at 585 nm. […]

T2 sequence (Q06210 1-681 isoform Q06210-2 I57T): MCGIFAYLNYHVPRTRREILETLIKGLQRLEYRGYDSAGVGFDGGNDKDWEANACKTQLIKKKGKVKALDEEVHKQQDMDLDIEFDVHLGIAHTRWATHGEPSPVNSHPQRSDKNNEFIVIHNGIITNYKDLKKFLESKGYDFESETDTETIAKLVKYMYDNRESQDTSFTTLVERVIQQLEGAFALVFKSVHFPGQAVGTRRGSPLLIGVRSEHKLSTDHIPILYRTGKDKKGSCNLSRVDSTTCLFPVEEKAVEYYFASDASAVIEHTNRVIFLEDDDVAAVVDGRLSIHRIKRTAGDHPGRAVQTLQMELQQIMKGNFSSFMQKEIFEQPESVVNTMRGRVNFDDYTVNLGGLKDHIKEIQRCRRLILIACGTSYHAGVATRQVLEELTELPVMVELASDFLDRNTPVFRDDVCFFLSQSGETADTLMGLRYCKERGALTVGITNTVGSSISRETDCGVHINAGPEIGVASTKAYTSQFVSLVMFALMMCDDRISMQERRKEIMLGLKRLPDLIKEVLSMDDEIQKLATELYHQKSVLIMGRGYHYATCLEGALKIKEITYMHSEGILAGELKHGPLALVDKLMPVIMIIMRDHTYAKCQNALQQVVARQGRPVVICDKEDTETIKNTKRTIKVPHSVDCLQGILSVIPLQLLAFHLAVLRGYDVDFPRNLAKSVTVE
T1 sequence (O94808 whole entry): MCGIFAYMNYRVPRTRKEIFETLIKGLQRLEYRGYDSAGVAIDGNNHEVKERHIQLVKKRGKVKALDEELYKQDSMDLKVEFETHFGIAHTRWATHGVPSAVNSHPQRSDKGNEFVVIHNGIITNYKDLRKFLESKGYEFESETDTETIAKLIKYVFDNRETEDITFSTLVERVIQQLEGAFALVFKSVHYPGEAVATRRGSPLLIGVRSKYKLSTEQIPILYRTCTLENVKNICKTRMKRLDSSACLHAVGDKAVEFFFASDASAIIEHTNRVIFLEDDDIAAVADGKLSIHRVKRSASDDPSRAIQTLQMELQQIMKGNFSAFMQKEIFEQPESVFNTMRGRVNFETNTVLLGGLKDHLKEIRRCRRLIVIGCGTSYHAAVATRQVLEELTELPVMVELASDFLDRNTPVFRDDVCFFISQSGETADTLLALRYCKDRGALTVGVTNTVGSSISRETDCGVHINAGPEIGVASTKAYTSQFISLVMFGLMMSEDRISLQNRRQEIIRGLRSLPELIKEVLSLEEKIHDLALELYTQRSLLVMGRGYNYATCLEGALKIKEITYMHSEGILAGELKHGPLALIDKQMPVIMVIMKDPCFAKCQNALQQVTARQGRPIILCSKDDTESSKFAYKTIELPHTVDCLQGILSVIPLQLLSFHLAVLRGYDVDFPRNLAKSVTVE

| Compound | Km (GFAT-beta [1]) | IC50 (GFAT-alpha) | further results |
| --- | --- | --- | --- |
| O=C(CO)[C@@H](O)[C@H](O)[C@H](O)COP(=O)(O)O [fructose 6-phosphate] | 6.8 mM |  |  |
| COC(=O)/C=C/C(=O)NC[C@H](N)C(=O)O [FMDP, N3-(-4-methoxyfumaroyl)-L-2,3-diaminopropanoic acid] |  | 4 µM |  |
| N[C@@H](CNC(=O)CBr)C(=O)O [N3-(bromoacetyl)-L-2,3-diaminopropanoic acid] |  | 0.38 µM |  |
| [N-]=[N+]=CC(=O)CC[C@H](N)C(=O)O [DON, 6-diazo-5-oxo-L-norleucine] |  | 18 µM |  |
| uridine-diphosphate-N-acetylglucosamine [UDP-N-acetylglucosamine] |  | 8 µM | IC50 (GFAT-beta [2]; enzyme expressed in SF9 insect cells, 60 minutes at 37° C., OD 585 nm, read-out: IC50 (concentration inhibiting 50% of maximum stimulation), GFAT-beta): 100 µM; times as much required to inhibit GFAT-beta compared with GFAT-alpha (GFAT-beta [2]; ratio of IC50 GFAT-beta to GFAT-alpha): more than 12 times |
| NC(=O)CC[C@H](N)C(=O)O [glutamine] | 1.99 mM |  |  |

— patent US20050032145A1, “Methods for measuring activity of glutamine:fructose 6-phosphate amidotransferase and activity of inhibitors thereof” (priority 2002, published 2005)
